EC50 data for 44 molecules are collected here from patent publication US20050075375A1 (priority 2003, published 2005).

Each structure is given as a SMILES string.

The subject of one assay is monocistronic NK5.1 HCV replicon in Huh7 cells. Nature of the assay: HCV replicon assay, monocistronic replicon cell line. In kind it is cell-based, hepatitis C virus. Conditions: Hepatitis C virus, Huh-7, 72 h; Table 1; monocistronic replicon in Huh7 cells, 3 days incubation, HCV RNA/GAPDH RNA by TaqMan RT-PCR; read-out: Mono EC50 Median. The method in brief: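 Huh7 cells carrying the monocistronic NK5.1 replicon, seeded 24 h before dosing, were exposed to six-point half-log compound series (0.6% DMSO) for 3 days at 37 °C. Replicon RNA was quantified by TaqMan RT-PCR, normalised to GAPDH and compared with DMSO controls to derive EC50.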
In the case of `Cc1cc(O)c(-c2cc(C)n(-c3ccccc3)n2)cc1C` [Compound 17, 4,5-Dimethyl-2-(5-methyl-1-phenyl-1H-pyrazol-3-yl)-phenol], the EC50 was over 19 µM.

For the molecule `CCOC(=O)c1cc(-c2ccc(OC)cc2)nn1-c1ncccc1C(F)(F)F` [Compound 56, 5-(4-Methoxy-phenyl)-2-(3-trifluoromethyl-pyridin-2-yl)-2H-pyrazole-3-carboxylic acid ethyl ester], the EC50 is over 32 µM.

As for `c1ccc(COc2ccc3ccccc3c2-c2ccn(-c3ccccn3)n2)cc1` [Compound 87, 2-[3-(2-Benzyloxy-naphthalen-1-yl)-pyrazol-1-yl]-pyridine], the EC50 is over 32 µM.

Consider `COc1ccccc1-c1ccn(-c2ccccn2)n1` [Compound 39, 2-[3-(2-Methoxy-phenyl)-pyrazol-1-yl]-pyridine], for which the EC50 was over 32 µM.

In the case of `COc1ccc(-c2ccn(-c3ncc(C(F)(F)F)cc3Cl)n2)c(F)c1` [Compound 47, 3-Chloro-2-[3-(2-fluoro-4-methoxy-phenyl)-pyrazol-1-yl]-5-trifluoromethyl-pyridine], the EC50 came to 6 µM.

Consider `COc1ccc(OCc2ccccc2)c(-c2ccnn2Cc2ccc3ccccc3n2)c1` [Compound 110, 2-[5-(2-Benzyloxy-5-methoxy-phenyl)-pyrazol-1-ylmethyl]-quinoline], for which the EC50 turned out to be 8 µM.

`CCOC(=O)c1cc(-c2ccc(OC)cc2)nn1-c1ncccc1[N+](=O)[O-]` [Compound 60, 5-(4-Methoxy-phenyl)-2-(3-nitro-pyridin-2-yl)-2H-pyrazole-3-carboxylic acid ethyl ester]: the EC50 was over 32 µM.

Turning to `COc1cccc(-c2nc(-c3nccc4ccccc34)no2)c1` [Compound 197, 1-[5-(3-Methoxy-phenyl)-[1,2,4]oxadiazol-3-yl]-isoquinoline], the EC50 is over 32 µM.

Consider `Cc1cc(-c2c(O)ccc3ccccc23)nn1-c1ccccc1C(F)(F)F` [Compound 5, 1-[5-Methyl-1-(2-trifluoromethyl-phenyl)-1H-pyrazol-3-yl]-naphthalen-2-ol], for which the EC50 is over 19 µM.

For `COc1ccccc1-c1ccnn1-c1ccccn1` [Compound 40, 2-[5-(2-Methoxy-phenyl)-pyrazol-1-yl]-pyridine], the EC50 was over 32 µM.

With `COc1ccc(-c2ccn(-c3ccccn3)n2)c(F)c1` [Compound 53, 2-[3-(2-Fluoro-4-methoxy-phenyl)-pyrazol-1-yl]-pyridine], the EC50 was over 32 µM.

As for `Oc1ccc(F)cc1-c1nc(-c2nccc3ccccc23)no1` [Compound 199, 4-Fluoro-2-(3-isoquinolin-1-yl-[1,2,4]oxadiazol-5-yl)-phenol], the EC50 was 1.1 µM.

Consider `FC(F)(F)c1cccnc1-n1nccc1-c1cc(Br)ccc1OCc1ccccc1` [Compound 107, 2-[5-(2-Benzyloxy-5-bromo-phenyl)-pyrazol-1-yl]-3-trifluoromethyl-pyridine], for which the EC50 was determined as 2.6 µM.

In the case of `COc1ccc(-c2ccn(-c3ncccc3C)n2)c(OCc2ccccc2)c1` [Compound 92, 2-[3-(2-Benzyloxy-4-methoxy-phenyl)-pyrazol-1-yl]-3-methyl-pyridine], the EC50 was determined as 5.2 µM.

In the case of `Cc1cc(-c2ccccc2O)n(-c2ccccc2[N+](=O)[O-])n1` [Compound 3, 2-[5-Methyl-2-(2-nitro-phenyl)-2H-pyrazol-3-yl]-phenol], the EC50 was determined as 31 µM.

On to `COc1ccc(O)c(-c2ccn(-c3ncccc3C(F)(F)F)n2)c1` [Compound 86, 4-Methoxy-2-[1-(3-trifluoromethyl-pyridin-2-yl)-1H-pyrazol-3-yl]-phenol], for which the EC50 came to 7.8 µM.

Take `Oc1ccc(Br)cc1-c1ccnn1-c1ncccc1C(F)(F)F` [Compound 106, 4-Bromo-2-[2-(3-trifluoromethyl-pyridin-2-yl)-2H-pyrazol-3-yl]-phenol]: the EC50 was determined as 15 µM.

Still in this assay, the particulars now being: Hepatitis C virus, Huh-7, 72 h; table T3 (compounds 471-640); monocistronic replicon in Huh7 cells, 3 days incubation, HCV RNA/GAPDH RNA by TaqMan RT-PCR; read-out: Mono EC50 Median.
Take `Cc1cccnc1-c1nc(-c2ccc3ccccc3c2O)n(C)n1` [Compound 618, 2-[2-methyl-5-(3-methyl-pyridin-2-yl)-2H-[1,2,4]triazol-3-yl]-naphthalen-1-ol]: the 50% effective concentration (EC50) came to 1.5 µM.

For the molecule `O=[N+]([O-])c1ccc(O)c(-c2nc(-c3ncccc3C(F)(F)F)n[nH]2)c1` [Compound 532, 4-Nitro-2-[5-(3-trifluoromethyl-pyridin-2-yl)-2H-[1,2,4]triazol-3-yl]-phenol], the EC50 was over 19 µM.

For `Oc1ccc2ccccc2c1-c1nc(-c2ccc(C(F)(F)F)cn2)n[nH]1` [Compound 525, 1-[5-(5-trifluoromethyl-pyridin-2-yl)-2H-[1,2,4]triazol-3-yl]-naphthalen-2-ol], the EC50 was over 19 µM.

Turning to `Oc1ccc(Br)cc1-c1nc(-c2ncccn2)n[nH]1` [Compound 566, 4-Bromo-2-(5-pyrimidin-2-yl-2H-[1,2,4]triazol-3-yl)-phenol], the EC50 came to 5.9 µM.

For `COc1cccc(-c2nc(-c3ncccc3Br)n[nH]2)c1O` [Compound 496, 2-[5-(3-Bromo-pyridin-2-yl)-2H-[1,2,4]triazol-3-yl]-6-Methoxy-phenol], the EC50 was over 32 µM.

Take `COc1ccc(-c2nc(-c3ccccn3)nn2C)c(O)c1` [Compound 601, 5-Methoxy-2-(2-methyl-5-pyridin-2-yl-2H-[1,2,4]triazol-3-yl)-phenol]: the half-maximal effective concentration (EC50) is over 32 µM.

Consider `Oc1ccccc1-c1nc(-c2cnccn2)n[nH]1` [Compound 585, 2-(5-pyrazin-2-yl-2H-[1,2,4]triazol-3-yl)-phenol], for which the 50% effective concentration (EC50) is over 32 µM.

Consider `COc1ccc(O)c(-c2nc(-c3ncccc3C(F)(F)F)n[nH]2)c1` [Compound 534, 4-Methoxy-2-[5-(3-trifluoromethyl-pyridin-2-yl)-2H-[1,2,4]triazol-3-yl]-phenol], for which the EC50 came out at 2.3 µM.

Regarding `O=[N+]([O-])c1cccnc1-c1n[nH]c(-c2cc(Br)ccc2O)n1` [Compound 556, 4-Bromo-2-[5-(3-nitro-pyridin-2-yl)-2H-[1,2,4]triazol-3-yl]-phenol], the EC50 was over 3.2 µM.

Take `CC(C)c1ccc(-c2nc(-c3ncccc3Br)n[nH]2)cc1` [Compound 502, 3-Bromo-2-[5-(4-isopropyl-phenyl)-1H-[1,2,4]triazol-3-yl]-pyridine]: the EC50 came out at 12 µM.

With `Clc1ccccc1-c1nc(-c2nccc3ccccc23)n[nH]1` [Compound 471], the EC50 is 6.1 µM.

Turning to `COc1ccc(O)c(-c2nc(-c3ccc(NC(C)=O)cn3)n[nH]2)c1` [Compound 595, N-{6-[5-(5-methoxy-2-hydroxy-phenyl)-1H-[1,2,4]triazol-3-yl]-pyridin-3-yl}-acetamide], the 50% effective concentration (EC50) is 41.8 µM.

Still in this assay, the particulars now being: Hepatitis C virus, Huh-7; monocistronic NK5.1 HCV replicon in Huh7 cells; median value; read-out: Mono EC50 Median.
Consider `Oc1ccc2ccccc2c1-c1nc(-c2cnccc2C(F)(F)F)n[nH]1` [Compound 429, 1-[5-(4-trifluoromethyl-pyridin-3-yl)-2H-[1,2,4]triazol-3-yl]-naphthalen-2-ol], for which the EC50 was over 19 µM.

`CCN(CC)c1ccc(-c2nc(-c3ccccn3)n[nH]2)c(O)c1` [Compound 365, 5-Diethylamino-2-(5-pyridin-2-yl-2H-[1,2,4]triazol-3-yl)-phenol]: the EC50 is over 32 µM.

As to `Cc1cccc(-c2n[nH]c(-c3ccccc3Cl)n2)n1` [Compound 466, 2-[5-(2-Chloro-phenyl)-1H-[1,2,4]triazol-3-yl]-6-methyl-pyridine], the half-maximal effective concentration (EC50) is over 32 µM.

As to `c1ccc2c(-c3nc(-c4nccc5ccccc45)n[nH]3)cccc2c1` [Compound 366, 1-(5-Naphthalen-1-yl-1H-[1,2,4]triazol-3-yl)-isoquinoline], the concentration for a half-maximal effect (EC50) was over 32 µM.

As for `Cc1cccc(-c2n[nH]c(-c3ccc(-c4ccccc4)c(F)c3)n2)n1` [Compound 398, 2-[5-(2-Fluoro-biphenyl-4-yl)-1H-[1,2,4]triazol-3-yl]-6-methyl-pyridine], the EC50 was over 19 µM.

As to `Cc1cccc(-c2n[nH]c(-c3cc(C(C)(C)C)ccc3O)n2)n1` [Compound 391, 4-tert-Butyl-2-[5-(6-methyl-pyridin-2-yl)-2H-[1,2,4]triazol-3-yl]-phenol], the concentration giving a half-maximal response (EC50) is over 19 µM.

In the case of `Fc1ccccc1-c1nnc(-c2cccs2)o1` [Compound 337, 2-(2-Fluoro-phenyl)-5-thiophen-2-yl-[1,3,4]oxadiazole], the EC50 was over 32 µM.

Regarding `Oc1ccccc1-c1nc(-c2nccc3ccccc23)n[nH]1` [Compound 377, 2-(5-isoquinolin-1-yl-2H-[1,2,4]triazol-3-yl)-phenol], the EC50 is over 19 µM.

`Cc1ccccc1-c1nnc(-c2ccco2)o1` [Compound 303, 2-Furan-2-yl-5-o-tolyl-[1,3,4]oxadiazole]: the EC50 is over 32 µM.

With `Oc1ccc2ccccc2c1-c1nnc(-c2ccccc2F)o1` [Compound 305, 1-[5-(2-Fluoro-phenyl)-[1,3,4]oxadiazol-2-yl]-naphthalen-2-ol], the concentration giving a half-maximal response (EC50) was over 32 µM.

In the case of `Clc1cccc(Cl)c1-c1nc(-c2ccccn2)n[nH]1` [Compound 435, 2-[5-(2,6-Dichloro-phenyl)-1H-[1,2,4]triazol-3-yl]-pyridine], the concentration giving a half-maximal response (EC50) was over 19 µM.

On to `Cc1cccnc1-c1noc(-c2cc(Cl)cc(Cl)c2O)n1` [Compound 278, 2,4-Dichloro-6-[3-(3-methyl-pyridin-2-yl)-[1,2,4]oxadiazol-5-yl]-phenol], for which the EC50 amounted to 3.8 µM.

Take `Cc1ccccc1-c1nnc(-c2ccccc2C(F)(F)F)o1` [Compound 314, 2-o-Tolyl-5-(2-trifluoromethyl-phenyl)-[1,3,4]oxadiazole]: the EC50 is 20 µM.

As to `Oc1ccc2ccccc2c1-c1nnc(-c2cccs2)o1` [Compound 308, 1-(5-Thiophen-2-yl-[1,3,4]oxadiazol-2-yl)-naphthalen-2-ol], the EC50 amounted to 26 µM.

`Cc1ccccc1-c1nnc(-c2c(Cl)cccc2Cl)o1` [Compound 316, 2-(2,6-Dichloro-phenyl)-5-o-tolyl-[1,3,4]oxadiazole]: the half-maximal effective concentration (EC50) is over 32 µM.
